# Patent US11673892B2, “Bicyclic compounds for use as RIP1 kinase inhibitors” (Genentech, Inc., priority 2017, dated 2023)
# Biological target: T1, human RIP1 kinase domain (2-375) (Homo sapiens, UniProt Q13546)
# T1 construct: Purified human RIP1 kinase domain (2-375) (50 nM); made in house; host or cells: baculovirus-infected insect cells
# T1 sequence (Q13546 2-375): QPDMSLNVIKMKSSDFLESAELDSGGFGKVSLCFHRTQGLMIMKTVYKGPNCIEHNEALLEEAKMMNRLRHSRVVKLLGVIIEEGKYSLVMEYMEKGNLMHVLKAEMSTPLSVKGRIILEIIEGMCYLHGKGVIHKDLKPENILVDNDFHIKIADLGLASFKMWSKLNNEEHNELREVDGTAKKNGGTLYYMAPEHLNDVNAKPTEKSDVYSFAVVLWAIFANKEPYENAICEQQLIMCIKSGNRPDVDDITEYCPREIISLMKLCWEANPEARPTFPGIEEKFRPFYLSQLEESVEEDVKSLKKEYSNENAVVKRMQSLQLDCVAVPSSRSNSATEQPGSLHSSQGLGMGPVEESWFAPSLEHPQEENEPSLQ
# Assay: RIP1 kinase inhibition biochemical assay (Transcreener ADP, fluorescence polarization)
# Details: Ki app (Morrison tight-binding fit); 50 nM enzyme, 50 uM ATP, 2 hours incubation
# Experimental: RIP1 Kinase Inhibition Assays (Biochemical Assay)
# The compounds of the present invention were tested for their capacity to inhibit RIP1K activity as described below.
# The ability of the receptor interacting protein kinase (RIPK1) to catalyze the hydrolysis of adenosine-5′-triphosphate (ATP) is monitored using the Transcreener ADP (adenosine-5′-diphosphate) assay (BellBrook Labs). Purified human RIP1 kinase domain (2-375) (50 nM) derived from a baculovirus-infected insect cell expression system is incubated with test compounds for 2 hours in 50 mM Hepes buffer (pH 7.5) containing 30 mM MgCl2, 1 mM dithiothreitol, 50 uM ATP, 0.002% Brij-35, and 0.5% dimethyl sulfoxide (DMSO). Reactions are quenched by the addition of 1× Bell Brooks Stop buffer B (20 mM Hepes (ph7.5), 40 mM ethylenediaminetetraacetic acid and 0.02% Brij-35) containing an additional 12 mM EDTA and 55 ug/mL ADP2 antibody and 4 nM ADP-AlexaFluor® 633 tracer. The tracer bound to the antibody is displaced by the ADP generated during the RIP1K reaction, which causes a decrease in fluorescence polarization that is measured by laser excitation at 633 nm with a FP microplate reader M1000. Fractional activity was plotted against test article concentration. Using Genedata Screener software (Genedata; Basel, Switzerland), the data were fit to the tight-binding apparent inhibition constant (Ki^app) Morrison equation [Williams, J. W. and Morrison, J. F. (1979) The kinetics of reversible tight-binding inhibition. Methods Enzymol 63: 437-67]. The following equation was used to calculate fractional activity and Ki^app:
# [formula] where [E]T and [I]T are the total concentrations of active enzyme and test article, respectively.
# Exemplary compounds of the present invention are provided in Table 1 along with their physiochemical characterization and in vitro RIP1 kinase inhibitory activity data. “Method” in the first column of each table refers to the synthetic method(s) used to prepare each compound as shown in the Examples above. In certain examples, chiral column retention times (min) are provided for certain stereoisomers. Unless otherwise specified, the stereochemistry shown in each structure represents relative configuration of a single stereoisomer, and absolute configuration (i.e., “R” and/or “S”) is arbitrarily assigned. In some embodiments, where the Method is described to include the separation of stereoisomers, a single stereoisomer of a compound of Table 1 is provided.
row,Ki [nM],Structure (SMILES)
1,12,"F[C@H]1C[C@@H](c2ccccc2)n2nc(CCC(F)(F)F)nc21 (single isomer, unassigned) [Example 18]"
2,1100,"Cn1ccc(-c2nc3n(n2)[C@H](c2ccccc2)C[C@@H]3F)n1 (single isomer, unassigned) [Example 19]"
3,11,"N#CCCc1nc2n(n1)[C@H](c1ccccc1)C[C@@H]2F (single isomer, unassigned) [Example 22]"
4,17,"Cc1cnn(-c2nc3n(n2)[C@H](c2ccccc2)C[C@@H]3F)c1 (single isomer, unassigned) [Example 25]"
5,114,"CCCc1nc2n(n1)[C@H](c1ccccc1F)CC2 (single isomer, unassigned) [Example 26]"
6,33,"CC[C@](C)(F)c1nc2n(n1)[C@H](c1ccccc1)C[C@@H]2F (single isomer, unassigned) [Example 27]"
7,22,"FC(F)CCc1nc2n(n1)[C@H](c1ccccc1)C[C@@H]2F (single isomer, unassigned) [Example 29]"
8,160,"F[C@H]1C[C@@H](c2ccccc2)n2nc(-n3cccn3)nc21 (single isomer, unassigned) [Example 31]"
9,18,"CC[C@@](C)(F)c1nc2n(n1)[C@H](c1ccccc1)C[C@@H]2F (single isomer, unassigned) [Example 32]"
10,904,"O[C@H](c1nc2n(n1)[C@H](c1ccccc1)C[C@@H]2F)C1CC1 (single isomer, unassigned) [Example 34]"
11,83,"O[C@@H](c1nc2n(n1)[C@H](c1ccccc1)C[C@@H]2F)C1CC1 (single isomer, unassigned) [Example 35]"
12,30,"CC(C)c1cnn(-c2nc3n(n2)[C@H](c2ccccc2)C[C@@H]3F)c1 (single isomer, unassigned) [Example 39]"
13,260,"F[C@H]1C[C@@H](c2ccccc2)n2nc(-n3cc(-c4ccncn4)cn3)nc21 (single isomer, unassigned) [Example 41]"
14,230,"F[C@H]1C[C@@H](c2ccccc2)n2nc([C@H](F)C34CC(C3)C4)nc21 (single isomer, unassigned) [Example 45]"
15,840,"F[C@H](c1nc2n(n1)[C@H](c1ccccc1)C[C@@H]2F)C12CC(C1)C2 (single isomer, unassigned) [Example 46]"
16,95,"N#CC1(Cc2nc3n(n2)[C@H](c2ccccc2)C[C@@H]3F)CC1 (single isomer, unassigned) [Example 47]"
17,1200,"Cn1cc(/C=C/c2nc3n(n2)[C@H](c2ccccc2)C[C@@H]3F)cn1 (single isomer, unassigned) [Example 49]"
18,220,"C=Cc1nc2n(n1)[C@H](c1ccccc1)C[C@@H]2F (single isomer, unassigned) [Example 50]"
19,100,"C=CCc1nc2n(n1)[C@H](c1ccccc1)C[C@@H]2F (single isomer, unassigned) [Example 52]"
20,280,"N#Cc1ccn(-c2nc3n(n2)[C@H](c2ccccc2)C[C@@H]3F)n1 (single isomer, unassigned) [Example 53]"
21,41,"N#Cc1cnn(-c2nc3n(n2)[C@H](c2ccccc2)C[C@@H]3F)c1 (single isomer, unassigned) [Example 54]"
22,< 5,"F[C@H]1C[C@@H](c2ccccc2)n2nc(-n3cc(C(F)(F)F)cn3)nc21 (single isomer, unassigned) [Example 56]"
23,130,"COc1cnn(-c2nc3n(n2)[C@H](c2ccccc2)C[C@@H]3F)c1 (single isomer, unassigned) [Example 57]"
24,9,"Fc1cnn(-c2nc3n(n2)[C@H](c2ccccc2)C[C@@H]3F)c1 (single isomer, unassigned) [Example 58]"
25,11,"CCc1cnn(-c2nc3n(n2)[C@H](c2ccccc2)C[C@@H]3F)c1 (single isomer, unassigned) [Example 59]"
26,820,"Cn1ccnc1-c1nc2n(n1)[C@H](c1ccccc1)C[C@@H]2F (single isomer, unassigned) [Example 61]"

row,Ki [nM],Structure (SMILES)
1,160,"F[C@H]1C[C@@H](c2ccccc2)n2nc(-n3cnc(C(F)(F)F)c3)nc21 (single isomer, unassigned) [Example 62]"
2,92,"Cc1ccnn1-c1nc2n(n1)[C@H](c1ccccc1)C[C@@H]2F (single isomer, unassigned) [Example 63]"
3,610,"F[C@H]1C[C@@H](c2ccccc2)n2nc(-n3ccc(C(F)(F)F)n3)nc21 (single isomer, unassigned) [Example 64]"
4,720,"Cc1nn(-c2nc3n(n2)[C@H](c2ccccc2)C[C@@H]3F)c(N)c1C#N (single isomer, unassigned) [Example 65]"
5,890,"F[C@H]1C[C@@H](c2ccccc2)n2nc(-n3ccnc3)nc21 (single isomer, unassigned) [Example 66]"
6,890,"Cc1nccn1-c1nc2n(n1)[C@H](c1ccccc1)C[C@@H]2F (single isomer, unassigned) [Example 67]"
7,190,"F[C@H]1C[C@@H](c2ccccc2)n2nc(-n3cncn3)nc21 (single isomer, unassigned) [Example 68]"
8,86,"F[C@H]1C[C@@H](c2ccccc2)n2nc(-n3ccnc3Cl)nc21 (single isomer, unassigned) [Example 69]"
9,180,"Cc1ncn(-c2nc3n(n2)[C@H](c2ccccc2)C[C@@H]3F)c1C (single isomer, unassigned) [Example 70]"
10,820,"Cn1ccn(-c2nc3n(n2)[C@H](c2ccccc2)C[C@@H]3F)c1=O (single isomer, unassigned) [Example 71]"
11,< 5,"N#Cc1cccc2c1cnn2-c1nc2n(n1)[C@H](c1ccccc1)C[C@@H]2F (single isomer, unassigned) [Example 72]"
12,70,"Cc1ncnn1-c1nc2n(n1)[C@H](c1ccccc1)C[C@@H]2F (single isomer, unassigned) [Example 74]"
13,100,"F[C@H]1C[C@@H](c2ccccc2)n2nc(-n3cnc(Cl)c3)nc21 (single isomer, unassigned) [Example 75]"
14,64,"Fc1cn(-c2nc3n(n2)[C@H](c2ccccc2)C[C@@H]3F)cn1 (single isomer, unassigned) [Example 76]"
15,260,"N#CCc1cnn(-c2nc3n(n2)[C@H](c2ccccc2)C[C@@H]3F)c1 (single isomer, unassigned) [Example 77]"
16,13,"F[C@H]1C[C@@H](c2ccccc2)n2nc(-n3cc(C4CC4)cn3)nc21 (single isomer, unassigned) [Example 79]"
17,190,"CS(=O)(=O)c1cnn(-c2nc3n(n2)[C@H](c2ccccc2)C[C@@H]3F)c1 (single isomer, unassigned) [Example 80]"
18,5,"F[C@H]1C[C@@H](c2ccccc2)n2nc(-n3nnc4ccccc43)nc21 (single isomer, unassigned) [Example 81]"
19,36,"F[C@H]1C[C@@H](c2ccccc2)n2nc(-n3nnc4ccncc43)nc21 (single isomer, unassigned) [Example 83]"
20,29,"F[C@H]1C[C@@H](c2ccccc2)n2nc(-n3ncc4ncccc43)nc21 (single isomer, unassigned) [Example 84]"
21,810,"F[C@H]1C[C@@H](c2ccccc2)n2nc(-n3ncc4cnccc43)nc21 (single isomer, unassigned) [Example 89]"
22,13,"Cc1cc(C#N)nn1-c1nc2n(n1)[C@H](c1ccccc1)C[C@@H]2F (single isomer, unassigned) [Example 91]"
23,250,"Cc1nn(-c2nc3n(n2)[C@H](c2ccccc2)C[C@@H]3F)cc1C#N (single isomer, unassigned) [Example 92]"
24,5,"Cc1c(C#N)cnn1-c1nc2n(n1)[C@H](c1ccccc1)C[C@@H]2F (single isomer, unassigned) [Example 93]"
25,39,"C[C@H]1C[C@@H]1c1nc2n(n1)[C@H](c1ccccc1)C[C@@H]2F (single isomer, unassigned) [Example 95]"
